Experimental data: patent US20180008535A1, “Drug-Device Unit Containing Quinagolide” (Ferring B.V., priority 2014, published 2018)
Values belong to the compound of their own block, whether it stands above or below them.

Key:
[1] = Plasma concentration of quinagolide and active metabolites in sheep with intravaginal rings; type: in vivo; conditions: first and second sheep trials
Text: During the first and second sheep trials, the plasma concentration of quinagolide (Q) was monitored over the 28 day period. The plasma concentrations of active metabolites (M1 and M2: see FIG. 13) were also monitored in the sheep. The results are illustrated in FIG. 10 (see Tables 14 and 17 for quinagolide dose).

[2] = PK variables for quinagolide administered by an intravaginal ring in clinical study 000155; type: in vivo, healthy women; conditions: for Tmax: median
Procedure: Following intravaginal administration the plasma concentration of quinagolide increased to reach a maximum at approximately 37-39 hours with a subsequent slow decline until the ring was removed (see FIG. 15). The mean time for reaching a maximum serum concentration was similar between all three dose groups but with substantial inter-individual variation. Cmax increased with increasing dose while the mean terminal half-life estimations were appropriately the same in all three doses (Table 21: above).

[3] = In vivo release profile of vaginal rings in clinical study 000155; set-up: species or system healthy women
[4] = vaginal ring dose load 400 μg, target release 5 μg/day
[5] = vaginal ring dose load 800 μg, target release 10 μg/day
[6] = vaginal ring dose load 1200 μg, target release 15 μg/day

Structure (SMILES): CCCN1CC(NS(=O)(=O)NCC)CC2Cc3c(O)cccc3CC21 (centres unmarked) [Batch M1]
molar plasma concentration, fold lower than the quinagolide [1]: approximately 10 fold

Structure (SMILES): CCCN1CC(NS(N)(=O)=O)CC2Cc3c(O)cccc3CC21 (centres unmarked) [Batch M2]
molar plasma concentration, fold lower than the quinagolide [1]: approximately 10 fold

quinagolide concentration in the plasma at any point during the study [1]: ≤ 50 pg/mL | AUC Day 0-28 (Hpg/mL) ([2]; 400 μg intravaginal ring, Mean (SD)): 738 (236) Hpg/mL | AUC Day 0-28 (Hpg/mL) ([2]; 800 μg intravaginal ring, Mean (SD)): 1497 (379) Hpg/mL | AUC Day 0-28 (Hpg/mL) ([2]; 1200 μg intravaginal ring, Mean (SD)): 3297 (1040) Hpg/mL | Cmax ([2]; female, human, plasma, 400 ug, 400 μg intravaginal ring, Mean (SD)): 3.4 pg/mL | Tmax ([2]; female, human, plasma, 400 ug, 400 μg intravaginal ring): 48 h | Cmax ([2]; female, human, plasma, 800 ug, 800 μg intravaginal ring, Mean (SD)): 5.3 pg/mL | Tmax ([2]; female, human, plasma, 800 ug, 800 μg intravaginal ring): 48 h | Cmax ([2]; female, human, plasma, 1200 ug, 1200 μg intravaginal ring, Mean (SD)): 10.9 pg/mL | Tmax ([2]; female, human, plasma, 1200 ug, 1200 μg intravaginal ring): 36 h | half-life ([2]; female, human, plasma, other: intravaginal ring, 400 ug, printed in the 400 μg line only, Mean (SD), read-out: T½ (converted)): 14 h | time at which plasma concentration of quinagolide reached a maximum ([2]; intravaginal administration, all three dose groups): 37 to 39 h | Average release 35 Days [3, 4]: 9.4 µg/day | Average release 7 days [3, 4]: 10.4 µg/day | Average release 28 days [3, 4]: 8.8 µg/day | Average release 35 Days [3, 5]: 16.8 µg/day | Average release 7 days [3, 5]: 24.1 µg/day | Average release 28 days [3, 5]: 12.6 µg/day | Average release 35 Days [3, 6]: 21.3 µg/day | Average release 7 days [3, 6]: 43.4 µg/day | Average release 28 days [3, 6]: 29.7 µg/day
Structure (SMILES): CCCN1C[C@@H](NS(=O)(=O)N(CC)CC)C[C@@H]2Cc3c(O)cccc3C[C@H]21 [quinagolide, N,N-diethyl-N′-[(3S,4aS, 10aR)-6-hydroxy-1-propyl-1,2,3,4,4a,5,10,10a-octahydrobenzo[g]quinolin-3-yl]sulfamide]
